Test results as given in patent EP0232089B1, “Quinone amides, their production and use” (Takeda Chemical Industries, Ltd., priority 1986, dated 1987).
Marks after values point to notes of the source that are not given here.

Test system: Bronchoconstriction in guinea pigs induced by PAF
Test: Platelet activating factor (PAF)-induced bronchoconstriction in guinea pigs (method of Konzett-Rossler)
Assay type: in vivo
Conditions: 8 animals
Procedure: Platelet activating factor (PAF)-induced bronchoconstriction in guinea pigs
Bronchoconstriction in guinea pigs induced by PAF (1 µg/kg, intravenous injection) was measured by the method of Konzett-Rossler. The following procedure was the same as that in leukotriene D4(LTD4)-induced bronchoconstriction. Test drugs were orally administered as a 5% gum arabic solution one hour before administration of PAF. Table 2 Inhibitory action against bronchoconstriction in guinea pigs

[1] = dose 5 mg/kg orally as 5% gum arabic solution one hour before PAF (1 µg/kg, intravenous injection)

Row | Compound | % inhibition [1] | % inhibition (dose 0.313 mg/kg orally as 5% gum arabic solution one hour before PAF (1 µg/kg, intravenous injection)) | % inhibition (dose 1.25 mg/kg orally as 5% gum arabic solution one hour before PAF (1 µg/kg, intravenous injection))
1 | CC1=C(C)C(=O)C(C(CCCCCC(=O)N2CCN(CCc3ccccc3)CC2)c2ccccc2)=C(C)C1=O (racemic) [Compound No. 18, 7-(3,5,6-trimethyl-1 ,4-benzoquinon-2-yl)-7-phenylheptanoic acid 4-(2-phenylethyl)-piperazinamide] | 59.9* % |  | 
2 | CC1=C(C)C(=O)C(C(CCCCCC(N)=O)c2ccccc2)=C(C)C1=O (centres unmarked) [Compound No. 1, 7-(3,5,6-trimethyl-1,4-benzoquinon-2-yl)-7-phenylheptanamide] | 100.0** % | 49.7* % | 80.3** %
3 | CC1=C(C)C(=O)C(C(CCCCCC(=O)NC(Cc2ccccc2)C(=O)O)c2ccccc2)=C(C)C1=O (centres unmarked) [Compound No. 30] | 72.1* % |  | 
